# Source: ChEMBL document CHEMBL3272131, “Molecular connectivity. 6. Examination of the parabolic relationship between molecular connectivity and biological activity” (J Med Chem, 1976)
# Assays:
# [1] = tested on: Mycobacterium tuberculosis; test: Antimicrobial activity against Mycobacterium tuberculosis; format: functional
# Rattus norvegicus = organism: Rattus norvegicus; test: Induction of hypnotic activity in rat; format: functional
# [2] = Drug absorption in intestine (unknown origin) assessed as serosal transfer; format: ADME, tissue-based
# [3] = Drug absorption in intestine (unknown origin) assessed as tissue-bound transfer; format: ADME, tissue-based
# [4] = Drug absorption in intestine (unknown origin) assessed as mucosal loss; format: ADME, tissue-based
# Clostridium perfringens = test: Antimicrobial activity against Clostridium welchii; format: functional
# [5] = Toxicity in sheep RBC assessed as hemolysis; format: cell-based, Ovis aries; details: erythrocyte
# Staphylococcus aureus = test: Antimicrobial activity against Staphylococcus aureus; format: functional
# Pseudomonas aeruginosa = test: Antimicrobial activity against Pseudomonas aeruginosa; format: functional
# Mus musculus = test: Induction of anesthetic activity in mouse; format: functional
# Oryctolagus cuniculus = organism: Oryctolagus cuniculus; test: Induction of hypnotic activity in rabbit; format: functional
smiles,measurement,setting,value
CCCCCCCOc1ncccc1N,-log(1/MIC),[1],4.62
CCCOc1ncccc1N,-log(1/MIC),[1],4.79
C=CCC1(CC(C)C)C(=O)NC(=O)NC1=O [BUTALBITAL],-log(1/MED),Rattus norvegicus,3.63
COC(N)=O [METHYL CARBAMATE],log%Abs,[2],0.45
same,log%Abs,[3],-0.38
same,log%Abs,[4],0.52
CCCCOc1ccc(N)cn1,-log(1/MIC),[1],5.13
CCCCCCOC(N)=O,log%Abs,[2],0.35
same,log%Abs,[3],-0.05
same,log%Abs,[4],0.5
CCCCCCCCOc1ncccc1N,-log(1/MIC),[1],3.75
CCCC(C)(C)OC(N)=O,log%Abs,[2],0.09
same,log%Abs,[3],-0.21
same,log%Abs,[4],0.26
CCCCCCCCCCCCCC[N+](C)(C)Cc1ccccc1 [MIRISTALKONIUM ION],-log(1/MIC),Clostridium perfringens,5.12
same,-log(1/MKC),Clostridium perfringens,5.12
same,-log(1/HC50),[5],4.4
same,-log(1/MIC),Staphylococcus aureus,5.82
same,-log(1/MIC),Pseudomonas aeruginosa,3.65
same,-log(1/MKC),Pseudomonas aeruginosa,3.96
CCCCCCCCOc1ccc(N)cc1,-log(1/MIC),[1],3.44
CCCCCCCCCCCCCCCC[N+](C)(C)Cc1ccc2c(c1)OCO2,-log(1/MIC),Staphylococcus aureus,4.2
CCCCOc1ccncc1N,-log(1/MIC),[1],5.73
CCCC1(CC(C)(C)C)C(=O)NC(=O)NC1=O,-log(1/AD50),Mus musculus,3.04
CCCC1(CCC(C)C)C(=O)NC(=O)NC1=O,-log(1/MED),Oryctolagus cuniculus,3.48
CCOc1ccc(N)cc1,-log(1/MIC),[1],4.44
CCCCCCCOC(N)=O,log%Abs,[2],-0.17
same,log%Abs,[3],-0.28
same,log%Abs,[4],0.08
CCCCCCCCCCOc1ncccc1N,-log(1/MIC),[1],3.19
CCCC1(CCC)C(=O)NC(=O)NC1=O,-log(1/MED),Oryctolagus cuniculus,3.55
CCCCCCCCCC[N+](C)(C)Cc1ccccc1,-log(1/MIC),Clostridium perfringens,3.57
same,-log(1/MKC),Clostridium perfringens,3.57
same,-log(1/HC50),[5],2.95
same,-log(1/MIC),Staphylococcus aureus,4.74
same,-log(1/MIC),Pseudomonas aeruginosa,2.74
same,-log(1/MKC),Pseudomonas aeruginosa,2.41
CCCCCCOc1ccc(N)cc1,-log(1/MIC),[1],5.8
CCCCCOC(N)=O,log%Abs,[2],0.57
same,log%Abs,[3],0.02
same,log%Abs,[4],0.68
CCCC1(C(C)C)C(=O)NC(=O)NC1=O,-log(1/MED),Oryctolagus cuniculus,3.63
C=CCC1(CCC)C(=O)NC(=O)NC1=O,-log(1/MED),Rattus norvegicus,3.47
CCOC(N)=O [URETHANE],log%Abs,[2],0.53
same,log%Abs,[3],-0.22
same,log%Abs,[4],0.6
CCCCC1(CC)C(=O)NC(=O)NC1=O [BUTETHAL],-log(1/MED),Rattus norvegicus,3.53
CCCCOC(N)=O,log%Abs,[2],0.82
same,log%Abs,[3],0.1
same,log%Abs,[4],0.9
CCCCCCCC[N+](C)(C)Cc1ccccc1,-log(1/MIC),Clostridium perfringens,3
same,-log(1/MKC),Clostridium perfringens,2.69
same,-log(1/HC50),[5],1.52
same,-log(1/MIC),Staphylococcus aureus,3.69
same,-log(1/MKC),Pseudomonas aeruginosa,1.68
C=CCC1(CC)C(=O)NC(=O)NC1=O [ETALLOBARBITAL],-log(1/MED),Rattus norvegicus,3.28
CCC1(C(C)C)C(=O)NC(=O)NC1=O [PROBARBITAL],-log(1/MED),Rattus norvegicus,3.34
same,-log(1/MED),Oryctolagus cuniculus,3.3
CCC1(CC(C)(C)C)C(=O)NC(=O)NC1=O,-log(1/AD50),Mus musculus,2.91
CCCCCOc1ccc(N)cc1,-log(1/MIC),[1],5.45
CCC1(CCC(C)C)C(=O)NC(=O)NC1=O [AMOBARBITAL],-log(1/MED),Rattus norvegicus,3.59
CCCCCCOc1ccc(N)cn1,-log(1/MIC),[1],5.49
CCC1(C(C)C(C)(C)C)C(=O)NC(=O)NC1=O (centres undefined),-log(1/AD50),Mus musculus,3.15
CC(C)COc1ncccc1N,-log(1/MIC),[1],4.52
CCCCCCCCCCCCCCCCCCC[N+](C)(C)Cc1ccccc1,-log(1/MIC),Clostridium perfringens,4.73
same,-log(1/MKC),Clostridium perfringens,4.73
same,-log(1/MIC),Staphylococcus aureus,4.91
same,-log(1/MIC),Pseudomonas aeruginosa,2.91
same,-log(1/MKC),Pseudomonas aeruginosa,2.52
CCCCCCOc1ccncc1N,-log(1/MIC),[1],5.8
CCCCCOc1ncccc1N,-log(1/MIC),[1],5.76
CCCCC1(CCCC)C(=O)NC(=O)NC1=O,-log(1/MED),Rattus norvegicus,3.08
CCCOC(N)=O,log%Abs,[2],0.71
same,log%Abs,[3],-0.04
same,log%Abs,[4],0.78
CC(C)CC1(CC(C)(C)C)C(=O)NC(=O)NC1=O,-log(1/AD50),Mus musculus,3.27
C=CCC1(CC=C)C(=O)NC(=O)NC1=O [ALLOBARBITAL],-log(1/MED),Rattus norvegicus,3.54
CCCCCCCCCCCCCCCC[N+](C)(C)Cc1ccccc1 [CETALKONIUM],-log(1/MIC),Clostridium perfringens,5.16
same,-log(1/MKC),Clostridium perfringens,5.16
same,-log(1/HC50),[5],4.79
same,-log(1/MIC),Staphylococcus aureus,5.56
same,-log(1/MIC),Pseudomonas aeruginosa,3.68
same,-log(1/MKC),Pseudomonas aeruginosa,3.3
CCCCCCCCCCCCC[N+](C)(C)Cc1ccccc1 [BENZALKONIUM],-log(1/MIC),Clostridium perfringens,5.1
same,-log(1/MKC),Clostridium perfringens,5.1
same,-log(1/MIC),Staphylococcus aureus,5.8
same,-log(1/MIC),Pseudomonas aeruginosa,3.8
same,-log(1/MKC),Pseudomonas aeruginosa,3.85
CC(C)(C)OC(N)=O,log%Abs,[2],0.65
same,log%Abs,[3],0
same,log%Abs,[4],0.73
CCCCCCCCCC[N+](C)(C)Cc1ccc(Cl)cc1,-log(1/MIC),Staphylococcus aureus,3.6
C=CCC1(C(C)C(C)(C)C)C(=O)NC(=O)NC1=O (centres undefined),-log(1/AD50),Mus musculus,3.39
COc1ncccc1N,-log(1/MIC),[1],2.59
CCC(C)(C)OC(N)=O,log%Abs,[2],0.68
same,log%Abs,[3],0.04
same,log%Abs,[4],0.77
CCCCCCCC[N+](C)(C)Cc1ccc(Cl)cc1,-log(1/MIC),Staphylococcus aureus,2.6
CCCCCCCCCCC[N+](C)(C)Cc1ccccc1,-log(1/MIC),Clostridium perfringens,4.06
same,-log(1/MKC),Clostridium perfringens,4.06
same,-log(1/MIC),Staphylococcus aureus,5.06
same,-log(1/MIC),Pseudomonas aeruginosa,3.06
same,-log(1/MKC),Pseudomonas aeruginosa,2.92
CC(C(C)(C)C)C1(C)C(=O)NC(=O)NC1=O (centres undefined),-log(1/AD50),Mus musculus,2.64
CCCCC1(C(C)C)C(=O)NC(=O)NC1=O,-log(1/MED),Rattus norvegicus,3.49
CCCCCCCCCCCCCCCCC[N+](C)(C)Cc1ccccc1,-log(1/MIC),Clostridium perfringens,4.7
same,-log(1/MKC),Clostridium perfringens,4.7
same,-log(1/MIC),Staphylococcus aureus,5.18
same,-log(1/MIC),Pseudomonas aeruginosa,3.57
same,-log(1/MKC),Pseudomonas aeruginosa,3.06
C=CCC1(C(C)C)C(=O)NC(=O)NC1=O [APROBARBITAL],-log(1/MED),Rattus norvegicus,3.6
CCCCCCCCOC(N)=O,log%Abs,[2],-0.43
same,log%Abs,[3],-0.57
same,log%Abs,[4],-0.19
CC(C)CCC1(CC(C)(C)C)C(=O)NC(=O)NC1=O,-log(1/AD50),Mus musculus,3.26
CCCCOc1ccc(N)c2ccccc12,-log(1/MIC),[1],4.03
CCC1(CC(C)C)C(=O)NC(=O)NC1=O,-log(1/MED),Oryctolagus cuniculus,3.63
NC(=O)OCc1ccccc1 [BENZYL CARBAMATE],log%Abs,[2],0.59
same,log%Abs,[3],0.01
same,log%Abs,[4],0.69
CCCCCC1(CC(C)(C)C)C(=O)NC(=O)NC1=O,-log(1/AD50),Mus musculus,3.32
CCOc1ncccc1N,-log(1/MIC),[1],3.54
C=CCC1(C(C)CC)C(=O)NC(=O)NC1=O (centres undefined) [TALBUTAL],-log(1/MED),Rattus norvegicus,3.78
CCCCC1(CC(C)(C)C)C(=O)NC(=O)NC1=O,-log(1/AD50),Mus musculus,3.33
CCCCCCCCCCCCCCCCCC[N+](C)(C)Cc1ccccc1,-log(1/MIC),Clostridium perfringens,4.71
same,-log(1/MKC),Clostridium perfringens,4.71
same,-log(1/HC50),[5],4.52
same,-log(1/MIC),Staphylococcus aureus,5.19
same,-log(1/MKC),Pseudomonas aeruginosa,2.63
C=CCC1(CCCC)C(=O)NC(=O)NC1=O,-log(1/MED),Rattus norvegicus,3.47
CCCCCCCCCCCC[N+](C)(C)Cc1ccc2c(c1)OCO2,-log(1/MIC),Staphylococcus aureus,4
CCCCCCCCCCCC[N+](C)(C)Cc1ccccc1 [BENZODODECINIUM],-log(1/MIC),Clostridium perfringens,4.61
same,-log(1/MKC),Clostridium perfringens,4.61
same,-log(1/HC50),[5],3.82
same,-log(1/MIC),Staphylococcus aureus,5.61
same,-log(1/MIC),Pseudomonas aeruginosa,3.61
same,-log(1/MKC),Pseudomonas aeruginosa,3.45
CCC1(c2ccccc2)C(=O)NC(=O)NC1=O [PHENOBARBITAL],-log(1/MED),Oryctolagus cuniculus,3.46
CC(C)(C)CC1(C)C(=O)NC(=O)NC1=O,-log(1/AD50),Mus musculus,2.12
CCCCCCCCCCCCCCC[N+](C)(C)Cc1ccccc1,-log(1/MIC),Clostridium perfringens,5.14
same,-log(1/MKC),Clostridium perfringens,5.14
same,-log(1/MIC),Staphylococcus aureus,5.84
same,-log(1/MIC),Pseudomonas aeruginosa,3.84
same,-log(1/MKC),Pseudomonas aeruginosa,3.74
CCCCOc1ccc(N)cc1,-log(1/MIC),[1],5.42
CCCCC1(C(C)C(C)(C)C)C(=O)NC(=O)NC1=O (centres undefined),-log(1/AD50),Mus musculus,3.36
C=CCC1(CCC(C)C)C(=O)NC(=O)NC1=O,-log(1/MED),Rattus norvegicus,3.45
CCCCCCCCCCCCCCCCCC[N+](C)(C)Cc1ccc(Cl)cc1Cl,-log(1/MIC),Staphylococcus aureus,3.3
COc1ccc(N)cc1,-log(1/MIC),[1],3.39
CC(C)COC(N)=O,log%Abs,[2],0.75
same,log%Abs,[3],0.04
same,log%Abs,[4],0.83
CCC1(CC)C(=O)NC(=O)NC1=O [BARBITAL],-log(1/MED),Rattus norvegicus,2.91
CCCC1(C(C)C(C)(C)C)C(=O)NC(=O)NC1=O (centres undefined),-log(1/AD50),Mus musculus,3.29
